Data: US9364479B2, “Use of a receptor-type kinase modulator for treating polycystic kidney disease” (SYMPHONY EVOLUTION, INC., priority 2010, dated 2016)

How the values were obtained:
[1] = target: T1, CYP3A4 (Homo sapiens, UniProt P08684); conditions: microsomes
[2] = target: T2, Dopamine Transporter (Homo sapiens, UniProt Q01959); experiment: NovaScreen assay; type: binding
T2 construct: NovaScreen

[3] = tested on: subjects with non-small-cell lung cancer; experiment: Clinical Study XL-647-201 (Phase 2, NSCLC front-line); type: in vivo, human; conditions: Intermittent 5&9 schedule
From the text: Study XL-647-201: Subjects with non-small-cell lung cancer (NSCLC) (n=52) of adenomacarcinoma histology, Stage IIIB, with malignant pleural effusion, or Stage IV previously untreated for metastatic disease were enrolled. Subjects were selected for clinical characteristics predictive of response to EGFR inhibitors (Asian, female, and/or minimal and remote smoking history).

[4] = target: T3, EphB4 (Homo sapiens, UniProt P54760); experiment: Mechanism of action study / Ki determination; type: biochemical
T3 construct: residues E605-E890 of human EphB4 containing a six histidine NH2-terminal tag; His6 (N); made in house; host or cells: baculovirus expression system
T3 sequence (P54760 605-890): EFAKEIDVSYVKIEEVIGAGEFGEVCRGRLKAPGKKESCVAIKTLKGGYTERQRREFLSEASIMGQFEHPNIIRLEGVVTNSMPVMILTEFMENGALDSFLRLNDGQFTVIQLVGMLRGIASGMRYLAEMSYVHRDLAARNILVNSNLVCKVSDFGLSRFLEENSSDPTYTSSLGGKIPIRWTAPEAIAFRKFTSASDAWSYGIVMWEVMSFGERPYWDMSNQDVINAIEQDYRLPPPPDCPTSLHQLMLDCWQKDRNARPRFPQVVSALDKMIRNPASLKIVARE
Description: Enzymatic activity was measured by standard methods after dilution of the enzyme-inhibitor complex. Activity was compared to a DMSO control treated under identical conditions.

[5] = tested on: Muscarinic, Non-selective, Central; experiment: NovaScreen assay; type: binding
[6] = target: T1, CYP3A4; conditions: microsomes; remark: listed apart in the source
[7] = tested on: Estrogen; experiment: NovaScreen assay; type: binding
[8] = type: in vitro ADME; conditions: human
[9] = mouse, in vivo, 100 mg/kg/day
Description: Throughout the dosing period, tumor size was measured twice weekly (where applicable), and body weight was measured daily. […] Tumors were excised at the termination of some studies and examined histologically for microvascular density (CD31 staining), proliferating cells (Ki67 staining), and necrosis (hematoxylin/eosin staining).
Tolerability was monitored in these studies by daily measurement of body weight.

[10] = target: ErbB2 (Homo sapiens, UniProt P04626); experiment: AlphaScreen tyrosine kinase assay; type: biochemical; design: residues Q679-V1255 of human ErbB2, Proqinase; purchased Proqinase; conditions: ATP at Km
Description: An AlphaScreen tyrosine kinase assay was used to measure ErbB2 and Flt-4 activity. Donor beads coated with streptavidin and acceptor beads coated with PY100 anti-phosphotyrosine antibody (Perkin-Elmer) were used. Biotinylated poly(Glu,Tyr) 4:1 was used as the substrate. Substrate phosphorylation was measured by luminescence following donor-acceptor bead addition followed by complex formation. Test compound, 3 μmol/L ATP, 3 nmol/L biotinylated poly(Glu,Tyr) 4:1, and 1 nmol/L ErbB2 (residues Q679-V1255 of human ErbB2, Proqinase) or Flt-4 (residues D725-R1298 of human Flt-4, Proqinase) were combined in a volume of 20 μL Assay Buffer (20 mM TrisHCl, pH 7.5, 10 mM MgCl2, 3 mM MnCl2, 1 mM DTT, 0.01% Triton) in a 384-well white, medium-binding microtiter plate (Greiner). Reaction mixtures were incubated for 1 h at room temperature. Reactions were quenched by addition of 10 μL of 15 to 30 μg/mL AlphaScreen bead suspension containing 75 mmol/L HEPES (pH 7.4), 300 mmol/L NaCl, 120 mmol/L EDTA, 0.3% bovine serum albumin, and 0.03% Tween 20. After 2 to 16 h of incubation at room temperature, plates were read using an AlphaQuest reader (Perkin-Elmer).

[11] = target: Flt-4 (Homo sapiens, UniProt P35916); experiment: AlphaScreen tyrosine kinase assay; type: biochemical; design: residues D725-R1298 of human Flt-4, Proqinase; purchased Proqinase; conditions: ATP at Km
Description: Dose-response experiments were done using 10 different inhibitor concentrations in 384-well microtiter plates. The ATP concentration used for each assay was equivalent to the Km for each kinase. IC50 values were calculated by nonlinear regression analysis using the four-variable equation: Y=min+(max−min)/[1+([I]/IC50)N], where Y is the observed signal, [I] is the inhibitor concentration, min is the background signal in the absence of enzyme (0% enzyme activity), max is the signal in the absence of inhibitor (100% enzyme activity), IC50 is the inhibitor concentration required at 50% enzyme inhibition, and N represents the empirical Hill slope as a measure of cooperativity.
An AlphaScreen tyrosine kinase assay was used to measure ErbB2 and Flt-4 activity. Donor beads coated with streptavidin and acceptor beads coated with PY100 anti-phosphotyrosine antibody (Perkin-Elmer) were used. Biotinylated poly(Glu,Tyr) 4:1 was used as the substrate. Substrate phosphorylation was measured by luminescence following donor-acceptor bead addition followed by complex formation. […] After 2 to 16 h of incubation at room temperature, plates were read using an AlphaQuest reader (Perkin-Elmer).

[12] = target: T4, p-Y-HER2/ErbB2 (Homo sapiens, UniProt P04626); experiment: In vivo receptor phosphorylation, BT474 xenografts; design: species or system mouse; conditions: Phospho
T4 construct: endogenous in cells; host or cells: BT474 tumour xenografts in mice (per the earlier reading)

[13] = tested on: subjects with relapsed or recurrent NSCLC; experiment: Clinical Study XL-647-203 (Phase 2, relapsed or recurrent NSCLC); type: in vivo, human; conditions: n=41
From the text: Study XL-647-203: Subjects (n=41) with relapsed or recurrent NSCLC (Stage IIIB or IV) with documented progressive disease after benefit from single agent treatment with erlotinib or gefitinib or with a known EGFR T790M mutation were enrolled.

[14] = clinical; conditions: human, in vivo

T1 sequence (P08684 whole entry): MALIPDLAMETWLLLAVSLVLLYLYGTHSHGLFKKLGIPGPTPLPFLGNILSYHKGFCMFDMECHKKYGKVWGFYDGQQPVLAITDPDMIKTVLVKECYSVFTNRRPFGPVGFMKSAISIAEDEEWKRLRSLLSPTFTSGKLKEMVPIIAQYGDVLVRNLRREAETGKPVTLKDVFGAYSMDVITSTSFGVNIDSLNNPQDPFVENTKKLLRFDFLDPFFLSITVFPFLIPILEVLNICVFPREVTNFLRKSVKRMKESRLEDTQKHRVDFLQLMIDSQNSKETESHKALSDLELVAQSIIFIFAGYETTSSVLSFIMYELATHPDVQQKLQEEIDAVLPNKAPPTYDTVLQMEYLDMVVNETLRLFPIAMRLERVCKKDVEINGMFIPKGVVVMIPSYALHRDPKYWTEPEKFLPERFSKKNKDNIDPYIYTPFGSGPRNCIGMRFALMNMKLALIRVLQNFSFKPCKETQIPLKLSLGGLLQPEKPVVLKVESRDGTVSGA
T2 sequence (Q01959 whole entry): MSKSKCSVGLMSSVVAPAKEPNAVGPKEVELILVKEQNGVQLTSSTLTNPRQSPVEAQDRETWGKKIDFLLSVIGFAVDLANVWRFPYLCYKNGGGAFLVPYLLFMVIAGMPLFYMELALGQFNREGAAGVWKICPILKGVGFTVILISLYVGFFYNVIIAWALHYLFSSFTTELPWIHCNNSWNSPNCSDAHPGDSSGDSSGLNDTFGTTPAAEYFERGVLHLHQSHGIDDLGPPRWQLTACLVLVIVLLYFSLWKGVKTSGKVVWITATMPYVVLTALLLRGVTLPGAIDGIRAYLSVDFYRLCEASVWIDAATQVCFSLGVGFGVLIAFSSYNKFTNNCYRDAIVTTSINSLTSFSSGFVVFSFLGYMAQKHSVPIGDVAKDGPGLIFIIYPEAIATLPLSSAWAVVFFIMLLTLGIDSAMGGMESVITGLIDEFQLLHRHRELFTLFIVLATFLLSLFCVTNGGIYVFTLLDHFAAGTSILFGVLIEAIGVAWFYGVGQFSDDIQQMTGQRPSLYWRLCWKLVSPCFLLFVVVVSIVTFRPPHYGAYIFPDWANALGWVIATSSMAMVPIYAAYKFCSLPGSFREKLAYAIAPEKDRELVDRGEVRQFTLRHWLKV
T4 sequence (P04626 23-1255): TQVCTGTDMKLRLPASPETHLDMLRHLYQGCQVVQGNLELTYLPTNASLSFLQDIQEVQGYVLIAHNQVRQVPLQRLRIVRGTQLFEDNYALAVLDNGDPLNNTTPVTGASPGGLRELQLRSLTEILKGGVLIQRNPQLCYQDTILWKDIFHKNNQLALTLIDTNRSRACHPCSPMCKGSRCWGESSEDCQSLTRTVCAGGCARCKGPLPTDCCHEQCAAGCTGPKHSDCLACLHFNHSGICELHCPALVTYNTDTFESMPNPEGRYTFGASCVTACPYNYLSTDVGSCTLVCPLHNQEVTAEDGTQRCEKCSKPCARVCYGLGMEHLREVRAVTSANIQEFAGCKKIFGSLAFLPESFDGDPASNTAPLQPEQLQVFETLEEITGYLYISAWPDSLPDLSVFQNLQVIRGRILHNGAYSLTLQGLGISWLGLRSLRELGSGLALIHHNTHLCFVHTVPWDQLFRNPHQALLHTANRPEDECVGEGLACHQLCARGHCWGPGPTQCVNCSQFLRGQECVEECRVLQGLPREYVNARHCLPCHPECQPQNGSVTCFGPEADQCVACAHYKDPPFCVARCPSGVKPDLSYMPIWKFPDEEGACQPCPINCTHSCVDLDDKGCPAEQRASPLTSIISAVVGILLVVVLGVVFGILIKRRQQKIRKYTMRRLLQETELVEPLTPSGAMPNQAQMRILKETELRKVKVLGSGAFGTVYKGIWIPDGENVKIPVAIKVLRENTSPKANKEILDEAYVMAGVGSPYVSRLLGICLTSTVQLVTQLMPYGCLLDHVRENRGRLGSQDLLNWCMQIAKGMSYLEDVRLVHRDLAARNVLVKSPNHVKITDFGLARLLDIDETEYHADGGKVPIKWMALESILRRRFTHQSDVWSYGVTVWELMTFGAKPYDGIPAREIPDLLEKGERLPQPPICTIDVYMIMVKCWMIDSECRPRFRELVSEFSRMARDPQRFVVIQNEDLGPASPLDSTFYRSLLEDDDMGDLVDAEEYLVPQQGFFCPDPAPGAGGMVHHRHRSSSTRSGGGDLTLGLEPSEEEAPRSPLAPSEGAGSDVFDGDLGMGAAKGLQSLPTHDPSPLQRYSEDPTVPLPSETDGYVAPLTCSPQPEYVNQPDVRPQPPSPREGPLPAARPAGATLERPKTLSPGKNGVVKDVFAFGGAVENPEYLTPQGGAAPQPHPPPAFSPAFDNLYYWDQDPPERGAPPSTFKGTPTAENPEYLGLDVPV
Chain of Flt-4 (P35916 725-1298 isoform P35916-1): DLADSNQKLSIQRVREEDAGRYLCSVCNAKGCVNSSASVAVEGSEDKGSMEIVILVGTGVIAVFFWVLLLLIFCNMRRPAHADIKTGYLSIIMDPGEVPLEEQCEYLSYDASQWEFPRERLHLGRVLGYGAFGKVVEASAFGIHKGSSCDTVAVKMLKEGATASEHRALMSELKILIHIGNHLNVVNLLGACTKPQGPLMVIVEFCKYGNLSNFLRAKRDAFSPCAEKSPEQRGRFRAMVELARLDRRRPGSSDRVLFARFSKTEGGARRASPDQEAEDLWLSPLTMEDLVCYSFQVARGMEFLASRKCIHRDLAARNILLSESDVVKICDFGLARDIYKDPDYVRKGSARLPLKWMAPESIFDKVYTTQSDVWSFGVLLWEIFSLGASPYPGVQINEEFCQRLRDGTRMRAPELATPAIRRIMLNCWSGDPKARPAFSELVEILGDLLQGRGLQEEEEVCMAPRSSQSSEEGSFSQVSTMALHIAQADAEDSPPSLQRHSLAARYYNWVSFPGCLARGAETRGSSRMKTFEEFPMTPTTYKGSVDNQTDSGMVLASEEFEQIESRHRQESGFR
Chain of ErbB2 (P04626 679-1255): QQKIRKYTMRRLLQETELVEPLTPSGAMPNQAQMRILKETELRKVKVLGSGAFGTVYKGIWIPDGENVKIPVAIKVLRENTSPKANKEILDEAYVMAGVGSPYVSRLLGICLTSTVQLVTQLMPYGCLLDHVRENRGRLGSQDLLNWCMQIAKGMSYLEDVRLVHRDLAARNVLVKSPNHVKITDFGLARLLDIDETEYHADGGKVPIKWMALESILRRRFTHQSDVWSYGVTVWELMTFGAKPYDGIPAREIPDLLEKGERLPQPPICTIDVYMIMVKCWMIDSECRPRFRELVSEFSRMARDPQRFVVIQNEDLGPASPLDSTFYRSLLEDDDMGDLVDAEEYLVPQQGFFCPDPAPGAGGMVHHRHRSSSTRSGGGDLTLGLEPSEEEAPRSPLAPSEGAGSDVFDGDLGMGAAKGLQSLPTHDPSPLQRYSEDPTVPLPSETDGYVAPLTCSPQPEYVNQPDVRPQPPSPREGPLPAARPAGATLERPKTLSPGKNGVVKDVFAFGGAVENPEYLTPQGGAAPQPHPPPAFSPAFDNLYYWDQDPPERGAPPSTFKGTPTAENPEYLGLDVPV

Structure (SMILES): COc1cc2c(Nc3ccc(Cl)c(Cl)c3F)ncnc2cc1OC[C@@H]1C[C@@H]2CN(C)C[C@@H]2C1 [XL-647, N-(3,4-dichloro-2-fluorophenyl)-7-({[(3aR,5r,6aS)-2-methyloctahydrocyclopenta[c]pyrrol-5-yl]methyl}oxy)-6-(methyloxy)quinazolin-4-amine]
- CYP3A4 substrate, in words [1]: substrate for CYP3A4-mediated metabolism
- IC50 [2]: 2480 nM
- inhibition at 10 µM ([2]; read-out: Inhibition, 10 μM XL-647): 87.1%
- clinical benefit rate (PR+SD) ([3]; 38 evaluable): 71%
- subjects with PR ([3]; of 38 evaluable): 10 subjects
- subjects with SD lasting 3 months or more ([3]; of 38 evaluable): 17 subjects
- ATP-Competitive [4]: Yes
- Ki [4]: 1 nM
- Reversible [4]: Yes
- IC50 [5]: 2570 nM
- Inhibition, 10 μM XL-647 ([5]; 10 μM): 97.91%
- CYP3A4 inhibition, in words [6]: but not CYP3A4
- Inhibition, 10 μM XL-647 [7]: 15.75%
- protein bound [8]: 93-97.5%
- tolerability, in words [9]: generally well-tolerated in mice without substantial body weight loss
- IC50 [10]: 16 ± 3 nM
- IC50 [11]: 8.7 ± 0.6 nM
- Single Dose Duration of Action (100 mg/kg, >50% inhibition) [12]: >72 h
- IC50 ([12]; in vivo, read-out: Estimated IC50 (plasma concentration)): 3600 nM
- subjects with PR [13]: one
- subjects with SD as best response [13]: 19 subjects
- half-life [14]: ~60 h
- Tmax ([14]; po): ~4 h
